Values after ≈ are worked out from the molar mass of the structure shown. Active and inactive are the calls of the source. The rule behind the calls is not given here.
Columns and labels:
Enterococcus faecalis = test: Antibacterial activity against Streptococcus faecalis MGH-2 by gradient plate test; type: functional
Plasmodium berghei [1] = test: Antimalarial activity against Plasmodium berghei infected in mouse assessed as increase in mean survival days of host at 20 mg/kg, sc administered 72 hrs after infection relative to control; type: functional; details: route subcutaneous
Plasmodium berghei [2] = test: Antimalarial activity against Plasmodium berghei infected in mouse assessed as increase in mean survival days of host at 40 mg/kg, sc administered 72 hrs after infection relative to control; type: functional; details: route subcutaneous
Plasmodium berghei [3] = test: Antimalarial activity against Plasmodium berghei infected in mouse assessed as increase in mean survival days of host at 160 mg/kg, sc administered 72 hrs after infection relative to control; type: functional; details: route subcutaneous
Plasmodium gallinaceum [4] = test: Antimalarial activity against sporozoite-induced Plasmodium gallinaceum infected in white leghorn chicken assessed as disease cure from parasite infection at 480 mg/kg, sc administered 72 hrs after infection; type: functional, organism-based; set-up: dose 480 mg/kg
[5] = test system: Mycobacterium tuberculosis; test: Antibacterial activity against Mycobacterium tuberculosis H37Ra by gradient plate test; type: functional
Plasmodium berghei [6] = test: Antimalarial activity against Plasmodium berghei infected in mouse assessed as increase in mean survival days of host at 320 mg/kg, sc administered 72 hrs after infection relative to control; type: functional; details: route subcutaneous
Plasmodium gallinaceum [7] = test: Antimalarial activity against sporozoite-induced Plasmodium gallinaceum infected in white leghorn chicken assessed as disease cure from parasite infection at 120 mg/kg, sc administered 72 hrs after infection; type: functional, organism-based; set-up: dose 120 mg/kg
Shigella sonnei = test: Antibacterial activity against Shigella sonnei C-10 by gradient plate test; type: functional
Plasmodium gallinaceum [8] = test: Antimalarial activity against sporozoite-induced Plasmodium gallinaceum infected in white leghorn chicken assessed as increase in mean survival days of host at 60 mg/kg, sc administered 72 hrs after infection relative to control; type: functional; details: route subcutaneous
Plasmodium berghei [9] = test: Antimalarial activity against Plasmodium berghei infected in mouse assessed as disease cure from parasite infection at 640 mg/kg, sc administered 72 hrs after infection; type: functional, organism-based; set-up: dose 640 mg/kg
Escherichia coli = test: Antibacterial activity against Escherichia coli Vogel by gradient plate test; type: functional
Plasmodium gallinaceum [10] = test: Antimalarial activity against sporozoite-induced Plasmodium gallinaceum infected in white leghorn chicken assessed as disease cure from parasite infection at 60 mg/kg, sc administered 72 hrs after infection; type: functional, organism-based; set-up: dose 60 mg/kg
Plasmodium gallinaceum [11] = test: Antimalarial activity against sporozoite-induced Plasmodium gallinaceum infected in white leghorn chicken assessed as disease cure from parasite infection at 15 mg/kg, sc administered 72 hrs after infection; type: functional, organism-based; set-up: dose 15 mg/kg
Plasmodium gallinaceum [12] = test: Antimalarial activity against sporozoite-induced Plasmodium gallinaceum infected in white leghorn chicken assessed as disease cure from parasite infection at 240 mg/kg, sc administered 72 hrs after infection; type: functional, organism-based; set-up: dose 240 mg/kg
Plasmodium gallinaceum [13] = test: Antimalarial activity against sporozoite-induced Plasmodium gallinaceum infected in white leghorn chicken assessed as disease cure from parasite infection at 30 mg/kg, sc administered 72 hrs after infection; type: functional, organism-based; set-up: dose 30 mg/kg
Plasmodium berghei [14] = test: Antimalarial activity against Plasmodium berghei infected in mouse assessed as increase in mean survival days of host at 640 mg/kg, sc administered 72 hrs after infection relative to control; type: functional; details: route subcutaneous
Plasmodium gallinaceum [15] = test: Antimalarial activity against sporozoite-induced Plasmodium gallinaceum infected in white leghorn chicken assessed as increase in mean survival days of host at 15 mg/kg, sc administered 72 hrs after infection relative to control; type: functional; details: route subcutaneous
Staphylococcus aureus [16] = test: Antibacterial activity against Staphylococcus aureus UC-96 by gradient plate test; type: functional
Plasmodium berghei [17] = test: Antimalarial activity against Plasmodium berghei infected in mouse assessed as increase in mean survival days of host at 80 mg/kg, sc administered 72 hrs after infection relative to control; type: functional; details: route subcutaneous
Plasmodium berghei [18] = test: Antimalarial activity against Plasmodium berghei infected in mouse assessed as increase in mean survival days of host at 10 mg/kg, sc administered 72 hrs after infection relative to control; type: functional; details: route subcutaneous
Plasmodium gallinaceum [19] = test: Antimalarial activity against sporozoite-induced Plasmodium gallinaceum infected in white leghorn chicken assessed as increase in mean survival days of host at 30 mg/kg, sc administered 72 hrs after infection relative to control; type: functional; details: route subcutaneous
Pseudomonas aeruginosa = test: Antibacterial activity against Pseudomonas aeruginosa 28 by gradient plate test; type: functional
Staphylococcus aureus [20] = test: Antibacterial activity against drug-resistant Staphylococcus aureus S18713 by gradient plate test; type: functional
Plasmodium berghei [21] = test: Antimalarial activity against Plasmodium berghei infected in mouse assessed as disease cure from parasite infection at 320 mg/kg, sc administered 72 hrs after infection; type: functional, organism-based; set-up: dose 320 mg/kg
Plasmodium berghei [22] = test: Antimalarial activity against Plasmodium berghei infected in mouse assessed as disease cure from parasite infection at 40 mg/kg, sc administered 72 hrs after infection; type: functional, organism-based; set-up: dose 40 mg/kg
Plasmodium berghei [23] = test: Antimalarial activity against Plasmodium berghei infected in mouse assessed as disease cure from parasite infection at 80 mg/kg, sc administered 72 hrs after infection; type: functional, organism-based; set-up: dose 80 mg/kg
Plasmodium berghei [24] = test: Antimalarial activity against Plasmodium berghei infected in mouse assessed as disease cure from parasite infection at 160 mg/kg, sc administered 72 hrs after infection; type: functional, organism-based; set-up: dose 160 mg/kg

Compound | MIC (Enterococcus faecalis) [µg/mL] | MST (Plasmodium berghei [1]) [days] | MST (Plasmodium berghei [2]) [days] | MST (Plasmodium berghei [3]) [days] | MIC [5] [µg/mL] | MST (Plasmodium berghei [6]) [days] | MIC (Shigella sonnei) [µg/mL] | Activity (Plasmodium berghei [9]) | MIC (Escherichia coli) [µg/mL] | MST (Plasmodium berghei [14]) [days] | MIC (Staphylococcus aureus [16]) [µg/mL] | MST (Plasmodium berghei [17]) [days] | MIC (Pseudomonas aeruginosa) [µg/mL] | MIC (Staphylococcus aureus [20]) [µg/mL] | also measured
Nc1nc(N)c2cc(Sc3ccccc3-c3ccccc3)ccc2n1 | < 0.25 | 0.5 | 0.5 | 5.7 | 20 (≈ 58.1 µM) | 12.5 | > 25 | Active | 2.5 (≈ 7.26 µM) | 16.4 | < 0.25 | 3.3 | > 25 | < 0.25 | Activity (Plasmodium gallinaceum [4]): Active; Activity (Plasmodium gallinaceum [7]): Active; MST (Plasmodium gallinaceum [8]): 0 days; Activity (Plasmodium gallinaceum [10]): Active; Activity (Plasmodium gallinaceum [11]): Active; Activity (Plasmodium gallinaceum [12]): Active; Activity (Plasmodium gallinaceum [13]): Active; MST (Plasmodium gallinaceum [15]): 0 days; MST (Plasmodium berghei [18]): 0.3 days; MST (Plasmodium gallinaceum [19]): 0 days
Nc1nc(N)c2c(Cl)c(Sc3ccccc3Cl)ccc2n1 | < 0.25 | 4.7 | 10.2 | 14.9 | > 25 | 24.4 | 1 (≈ 2.97 µM) | Active | < 0.25 | 24.9 | < 0.25 | 11.7 | > 25 | < 0.25 | Activity (Plasmodium berghei [21]): Active; Activity (Plasmodium berghei [22]): Active; Activity (Plasmodium berghei [23]): Active; Activity (Plasmodium berghei [24]): Active
